Measurements as given in patent US20250353873A1, “COMPOUNDS AND METHODS FOR MODULATING APOE EXPRESSION” (Ionis Pharmaceuticals, Inc., priority 2024, published 2025).
Strand notation (5' to 3'): a small letter for the sugar, then the base; units joined by * are phosphorothioate-linked, units joined directly phosphodiester-linked; [ ] holds rarer units or linkages, { } end groups; capitals alone tell only the bases. [ms] = mesyl phosphoramidate linkage; e = 2'-O-(2-methoxyethyl) (MOE); [5mC] = 5-methylcytosine; d = 2'-deoxy (DNA)

Experiments:
[1] = tested on: human APOE RNA; assay: Activity in APOE 1549 knock-in mice, single ICV bolus, 2 weeks (Example 7); format: in vivo; conditions: single ICV bolus of 300 μg, two weeks post treatment
Description: Modified oligonucleotides described above were tested in APOE knock-in mice.
APOE knock-in mice (model 41549) were obtained from Taconic Biosciences. APOE knock-in mice were divided into groups of 2 mice each. Each mouse received a single intracerebroventricular (ICV) bolus of 300 μg of modified oligonucleotide. A group of 4 mice received a single ICV bolus with PBS as a negative control.
Two weeks post treatment, mice were sacrificed and RNA was extracted from cortical brain tissue and spinal cord for quantitative real-time RT-PCR analysis of RNA expression of APOE using primer probe set RTS3073 (described herein above). APOE RNA levels were normalized to mouse Ppia. Mouse Ppia was amplified using primer probe set m_cyclo24 (forward sequence TCGCCGCTTGCTGCA, designated herein as SEQ ID NO: 16; reverse sequence ATCGGCCGTGATGTCGA, designated herein as SEQ ID NO: 17; probe sequence […], designated herein as SEQ ID NO: 18). Results are presented as percent human APOE RNA relative to the amount of human APOE RNA in PBS treated animals, (% control). Each experiment is identified in separate tables below.

[2] = tested on: human APOE RNA; assay: Activity in APOE 1549 knock-in mice, single ICV bolus, 4 weeks (Example 8); format: in vivo; conditions: n = 2, single ICV bolus of 300 μg, four weeks post treatment, Table 18
Description: Modified oligonucleotides described above were tested in the 1549 APOE knock-in mouse model described above.
APOE knock-in mice were divided into groups of either 2 or 6 mice each as described in the tables below. Each mouse received a single intracerebroventricular (ICV) bolus of 300 μg of modified oligonucleotide. A group of either 3 or 6 mice received a single ICV bolus with PBS as a negative control.
Four weeks post treatment, mice were sacrificed and RNA was extracted from cortical brain tissue and spinal cord for quantitative real-time RT-PCR analysis of RNA expression of APOE using primer probe set RTS3073 (described herein above). APOE RNA levels were normalized to mouse Ppia. Mouse Ppia was amplified using primer probe set m_cyclo24 (described herein above). Results are presented as percent human APOE RNA relative to the amount of human APOE RNA in PBS treated animals, (% control). Each experiment is identified in separate tables below.

[3] = tested on: human APOE RNA; assay: Activity in APOE C57BL/6NTac-Apoeem7250 knock-in mice, single ICV bolus, 20 weeks (Example 13); format: in vivo; conditions: single ICV bolus 300 μg, 20 weeks post treatment, normalized to mouse Ppia
In short: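 Cortical and spinal cord RNA was assayed by real-time RT-PCR for human APOE, normalized to mouse Ppia and reported as percent of PBS controls. Tissue was taken twenty weeks after one 300 μg intracerebroventricular bolus in APOE knock-in mice, 4 per group.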

[4] = tested on: human APOE RNA; assay: Dose-dependent inhibition of human APOE RNA in HepG2 cells, electroporation, 24 hours (Example 6); format: cell-based
In short: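 IC50 derived from APOE RNA levels, given as percent of untreated control after GAPDH normalization (probe sets RTS3073 and RTS104). Oligonucleotides were delivered at multiple concentrations by electroporation into HepG2 cells seeded at 50,000 per well.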

[5] = tested on: human APOE RNA; assay: Duration of action study in APOE C57BL/6NTac-Apoeem7250 knock-in mice (Example 16); format: in vivo; conditions: 300 μg ICV
In short: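 Knock-in mice (2-4 per group) received a single ICV bolus of 300 μg oligonucleotide or PBS. At various timepoints, cortex and spinal cord human APOE RNA was measured by RT-qPCR (RTS3073), normalized to mouse Ppia and expressed as % of PBS control.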

[6] = tested on: human APOE RNA; assay: Activity in APOE C57BL/6NTac-Apoeem7250 knock-in mice, single ICV bolus, 8 weeks (Example 11); format: in vivo; conditions: single ICV bolus 300 μg, 8 weeks post treatment, normalized to mouse Ppia
In short: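 Cortical and spinal cord human APOE RNA quantified by RT-qPCR 8 weeks after a single 300 μg ICV dose in knock-in mice, Ppia-normalized. Values are percent of levels in PBS-treated animals.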

[7] = tested on: human APOE RNA; assay: Activity in APOE C57BL/6NTac-Apoeem7250 knock-in mice, single ICV bolus, 16 weeks (Example 12); format: in vivo; conditions: single ICV bolus 300 μg, 16 weeks post treatment, normalized to mouse Ppia
In short: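 A single 300 μg intracerebroventricular dose was given, with PBS-treated mice as reference; cortical and spinal cord tissue was taken 16 weeks later. RT-qPCR quantified human APOE RNA, Ppia-normalized, expressed relative to PBS animals (% control).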

| Substance | APOE RNA (% control) Cortex ([1]; Table 16) [% control] | APOE RNA (% control) Spinal Cord ([1]; Table 16) [% control] | IC50 [4] [nM] | APOE RNA (% UTC) ([4]; 5 nM) | APOE RNA (% UTC) ([4]; 13 nM) | APOE RNA (% UTC) ([4]; 33 nM) | APOE RNA (% UTC) ([4]; 82 nM) | APOE RNA (% UTC) ([4]; 205 nM) | APOE RNA (% UTC) ([4]; 512 nM) | APOE RNA (% UTC) ([4]; 1,280 nM) | APOE RNA (% UTC) ([4]; 3,200 nM) | APOE RNA (% UTC) ([4]; 8,000 nM) | APOE RNA (% UTC) ([4]; 20,000 nM) | other results |
| --- | --- | --- | --- | --- | --- | --- | --- | --- | --- | --- | --- | --- | --- | --- |
| 1601959: 6-10-4 MOE gapmer CCGTGTCGCTGCCCCTGGCT, linkages sooooossssssssssoss (antisense e[5mC]*e[5mC]eGeTeGeTd[5mC]*dG*d[5mC]*dT*dG*d[5mC]*d[5mC]*d[5mC]*d[5mC]*dT*eGeG*e[5mC]*eT) [compound 1601959] | 107 | 85 |  |  |  |  |  |  |  |  |  |  |  |  |
| 1736526: 6-10-4 MOE gapmer CTTGGTGAATCTTTATTAAA, linkages ssoooszzsssssssssss (e[5mC]*eT*eTeGeGeT*dG[ms]dA[ms]dA*dT*d[5mC]*dT*dT*dT*dA*dT*eT*eA*eA*eA) [compound 1736526] |  |  | 1150 | 89 | 114 | 100 | 85 | 71 | 51 | 58 | 28 | 25 | 18 | APOE RNA (% control) Cortex ([2]; cortex): 35 % control; APOE RNA (% control) Spinal Cord ([2]; spinal cord): 42 % control; APOE RNA (% control) Cortex ([3]; cortex): 67 % control; APOE RNA (% control) Spinal Cord ([3]; spinal cord): 68 % control |
| 1652902: 6-10-4 MOE gapmer CTTGGTGAATCTTTATTAAA, linkages sooooossssssssssoss (antisense e[5mC]*eTeTeGeGeTdG*dA*dA*dT*d[5mC]*dT*dT*dT*dA*dT*eTeA*eA*eA) [compound 1652902] |  |  | 70 | 88 | 94 | 54 | 44 | 26 | 19 | 10 | 4 | 3 | 2 | APOE RNA (% control) Cortex ([5]; 14 days post-dose): 43 % control; APOE RNA (% control) Cortex ([5]; 112 days post-dose): 75 % control; APOE RNA (% control) Spinal Cord ([5]; 14 days post-dose): 27 % control; APOE RNA (% control) Spinal Cord ([5]; 112 days post-dose): 32 % control; APOE RNA (% control) Cortex ([6]; cortex): 44 % control; APOE RNA (% control) Spinal Cord ([6]; spinal cord): 12 % control; APOE RNA (% control) Cortex ([7]; cortex): 105 % control; APOE RNA (% control) Spinal Cord ([7]; spinal cord): 60 % control; APOE RNA (% control) Cortex ([1]; Table 17): 31 % control; APOE RNA (% control) Spinal Cord ([1]; Table 17): 171 % control |
| 1601942: 6-10-4 MOE gapmer CCGTGTTCCATTTATGAGCT, linkages sooooossssssssssoss (antisense e[5mC]*e[5mC]eGeTeGeTdT*d[5mC]*d[5mC]*dA*dT*dT*dT*dA*dT*dG*eAeG*e[5mC]*eT) [compound 1601942] | 84 | 91 |  |  |  |  |  |  |  |  |  |  |  |  |
| 1601949: 6-10-4 MOE gapmer CTGCAATGCATTAGAAACCT, linkages sooooossssssssssoss (antisense e[5mC]*eTeGe[5mC]eAeAdT*dG*d[5mC]*dA*dT*dT*dA*dG*dA*dA*eAe[5mC]*e[5mC]*eT) [compound 1601949] | 77 | 92 |  |  |  |  |  |  |  |  |  |  |  |  |
